Values quoted from earlier work as cited in patent US20140314729A1, “NUTRACEUTICAL FORMULATION FOR TREATMENT OF ELEVATED CHOLESTEROL AND CARDIOVASCULAR DISEASE” (Creative Medical Health Inc., priority 2013, published 2014).

Columns and labels:
[1] = system: patients with type 2 diabetes; details: oral 200 mg/day for 12 weeks
mouse model = details: 150 mg/kg body weight for 10 days
volunteers = details: 1.6 mg daily, 42-day period
HIV-positive subjects = details: 1000 µg/day for eight weeks
[2] = system: streptozotocin-treated rats; details: 80 μg/kg body weight daily for two weeks; P<0.001

COC1=C(OC)C(=O)C(C/C=C(\C)CC/C=C(\C)CC/C=C(\C)CC/C=C(\C)CC/C=C(\C)CC/C=C(\C)CC/C=C(\C)CC/C=C(\C)CC/C=C(\C)CCC=C(C)C)=C(C)C1=O [coenzyme Q10]
brachial artery flow-mediated dilation [1]: increased

CC(C)(COP(=O)(O)O)[C@@H](O)C(=O)NCCC(=O)O [phosphopantothenate]
content of triglycerides, total cholesterol and cholesterol esters in serum and adipose tissue (mouse model): decreased

chromium picolinate
decrease in LDL cholesterol (volunteers): 10.5% | decrease in total cholesterol (volunteers): 7% | LDL cholesterol after treatment (volunteers; from 200): 178 mg per dl | total cholesterol after treatment (volunteers; from 276): 256 mg per dl | increase of mean rate of glucose disposal (HIV-positive subjects): 25% | mean rate of glucose disposal after treatment (HIV-positive subjects; from 4.41, range 3.19-12.78, p=0.03): 6.51 mg/kg LBM/min | average lowering of blood glucose compared with high-fat diet alone [2]: 63% | lowering of total cholesterol compared with high-fat diet alone [2]: 9.7% | lowering of triglycerides compared with high-fat diet alone [2]: 6.6%
